Assay: Percent of drug in suspension as a function of concentration in the formulation and pH
Assay type: physicochemical
[1] = pH 4.0, concentration in the formulation 1.0
[2] = pH 4.0, concentration in the formulation 5.0
[3] = pH 4.0, concentration in the formulation .001
[4] = pH 4.0, concentration in the formulation .01
[5] = pH 4.0, concentration in the formulation .1
[6] = pH 5.0, concentration in the formulation 1.0
[7] = pH 5.0, concentration in the formulation 5.0
[8] = pH 5.0, concentration in the formulation .001
[9] = pH 5.0, concentration in the formulation .01
[10] = pH 5.0, concentration in the formulation .1
[11] = pH 6.0, concentration in the formulation 1.0
[12] = pH 6.0, concentration in the formulation 5.0
[13] = pH 6.0, concentration in the formulation .001
[14] = pH 6.0, concentration in the formulation .01
[15] = pH 6.0, concentration in the formulation .1
[16] = pH 7.0, concentration in the formulation 1.0
[17] = pH 7.0, concentration in the formulation 5.0
[18] = pH 7.0, concentration in the formulation .001
[19] = pH 7.0, concentration in the formulation .01
[20] = pH 7.0, concentration in the formulation .1

For `CC(C(=O)O)c1ccc(-c2ccccc2)c(F)c1` (stereo not shown) [Flurbiprofen], the “Percent Flurbiprofen in Suspension” value [1] was 99%, the “Percent Flurbiprofen in Suspension” value [2] was 99% and the “Percent Flurbiprofen in Suspension” value [3] was 20%. For the same compound, the “Percent Flurbiprofen in Suspension” value [4] was 92%, the “Percent Flurbiprofen in Suspension” value [5] was 99% and the “Percent Flurbiprofen in Suspension” value [6] was 99%. For the same compound, the “Percent Flurbiprofen in Suspension” value [7] was 99%, the “Percent Flurbiprofen in Suspension” value [8] was 0% and the “Percent Flurbiprofen in Suspension” value [9] was 33%. For the same compound, the “Percent Flurbiprofen in Suspension” value [10] was 93%, the “Percent Flurbiprofen in Suspension” value [11] was 80% and the “Percent Flurbiprofen in Suspension” value [12] was 98%. For the same compound, the “Percent Flurbiprofen in Suspension” value [13] was 0%, the “Percent Flurbiprofen in Suspension” value [14] was 0% and the “Percent Flurbiprofen in Suspension” value [15] was 0%. The “Percent Flurbiprofen in Suspension” value [16] was 24%, the “Percent Flurbiprofen in Suspension” value [17] was 92% and the “Percent Flurbiprofen in Suspension” value [18] was 0%. The “Percent Flurbiprofen in Suspension” value [19] was 0% and the “Percent Flurbiprofen in Suspension” value [20] was 0%.
In the case of `CC(C(=O)O)c1ccc(C(=O)c2cccs2)cc1` (stereo not shown) [Suprofen], the “Percent Suprofen in Suspension” value [1] is reported as 98%, the “Percent Suprofen in Suspension” value [2] is reported as 99% and the “Percent Suprofen in Suspension” value [3] is reported as 0%. For the same compound, the “Percent Suprofen in Suspension” value [4] was 0%, the “Percent Suprofen in Suspension” value [5] was 77% and the “Percent Suprofen in Suspension” value [6] was 95%. The “Percent Suprofen in Suspension” value [7] was 99%, the “Percent Suprofen in Suspension” value [8] was 0% and the “Percent Suprofen in Suspension” value [9] was 0%. For the same compound, the “Percent Suprofen in Suspension” value [10] was 45%, the “Percent Suprofen in Suspension” value [11] was 54% and the “Percent Suprofen in Suspension” value [12] was 95%. The “Percent Suprofen in Suspension” value [13] was 0%, the “Percent Suprofen in Suspension” value [14] was 0% and the “Percent Suprofen in Suspension” value [15] was 0%. For the same compound, the “Percent Suprofen in Suspension” value [16] was 0%, the “Percent Suprofen in Suspension” value [17] was 68% and the “Percent Suprofen in Suspension” value [18] was 0%. For the same compound, the “Percent Suprofen in Suspension” value [19] was 0% and the “Percent Suprofen in Suspension” value [20] was 0%.
For `O=C(O)Cc1ccccc1Nc1c(Cl)cccc1Cl` [Diclofenac Sodium, sodium ortho-(2,6-dichlorophenyl)aminophenylacetate acid], the “diclofenac in suspension (in words)” value (below a pH of about 6.8, formulation containing 1% diclofenac sodium) was “virtually all”, the “Percent Diclofenac Sodium in Suspension” value (pH 3.7, concentration in the formulation 1.0) was 100% and the “Percent Diclofenac Sodium in Suspension” value (pH 3.7, concentration in the formulation .001) was 100%. The “Percent Diclofenac Sodium in Suspension” value (pH 3.7, concentration in the formulation .01) was 100%, the “Percent Diclofenac Sodium in Suspension” value (pH 3.7, concentration in the formulation .1) was 100% and the “Percent Diclofenac Sodium in Suspension” value [1] was 99%. The “Percent Diclofenac Sodium in Suspension” value [3] was 99%, the “Percent Diclofenac Sodium in Suspension” value [4] was 99% and the “Percent Diclofenac Sodium in Suspension” value [5] was 99%. For the same compound, the “Percent Diclofenac Sodium in Suspension” value (pH 4.6, concentration in the formulation 1.0) was 99%, the “Percent Diclofenac Sodium in Suspension” value (pH 4.6, concentration in the formulation .001) was 90% and the “Percent Diclofenac Sodium in Suspension” value (pH 4.6, concentration in the formulation .01) was 99%. The “Percent Diclofenac Sodium in Suspension” value (pH 4.6, concentration in the formulation .1) was 99%, the “Percent Diclofenac Sodium in Suspension” value (pH 5.2, concentration in the formulation 1.0) was 99% and the “Percent Diclofenac Sodium in Suspension” value (pH 5.2, concentration in the formulation .001) was 20%. The “Percent Diclofenac Sodium in Suspension” value (pH 5.2, concentration in the formulation .01) was 92%, the “Percent Diclofenac Sodium in Suspension” value (pH 5.2, concentration in the formulation .1) was 99% and the “Percent Diclofenac Sodium in Suspension” value (pH 5.9, concentration in the formulation 1.0) was 99%. The “Percent Diclofenac Sodium in Suspension” value (pH 5.9, concentration in the formulation .001) was 0%, the “Percent Diclofenac Sodium in Suspension” value (pH 5.9, concentration in the formulation .01) was 50% and the “Percent Diclofenac Sodium in Suspension” value (pH 5.9, concentration in the formulation .1) was 95%. The “Percent Diclofenac Sodium in Suspension” value (pH 6.3, concentration in the formulation 1.0) was 98%, the “Percent Diclofenac Sodium in Suspension” value (pH 6.3, concentration in the formulation .001) was 0% and the “Percent Diclofenac Sodium in Suspension” value (pH 6.3, concentration in the formulation .01) was 0%. The “Percent Diclofenac Sodium in Suspension” value (pH 6.3, concentration in the formulation .1) was 76%, the “Percent Diclofenac Sodium in Suspension” value (pH 6.5, concentration in the formulation 1.0) was 93% and the “Percent Diclofenac Sodium in Suspension” value (pH 6.5, concentration in the formulation .001) was 0%. For the same compound, the “Percent Diclofenac Sodium in Suspension” value (pH 6.5, concentration in the formulation .01) was 0%, the “Percent Diclofenac Sodium in Suspension” value (pH 6.5, concentration in the formulation .1) was 35% and the “Percent Diclofenac Sodium in Suspension” value (pH 7.3, concentration in the formulation 1.0) was 64%. For the same compound, the “Percent Diclofenac Sodium in Suspension” value (pH 7.3, concentration in the formulation .001) was 0%, the “Percent Diclofenac Sodium in Suspension” value (pH 7.3, concentration in the formulation .01) was 0% and the “Percent Diclofenac Sodium in Suspension” value (pH 7.3, concentration in the formulation .1) was 0%.

— patent US5814655A, “Non-steroidal ophthalmic mixtures” (InSite Vision Incorporated, priority 1996, dated 1998)
